target: recombinant DYRK1A kinase (Homo sapiens (Human), UniProt Q13627); assay: DYRK1A kinase assay (Ser/Thr 18 peptide Z-lyte FRET assay); assay type: biochemical; conditions: DYRK1A kinase activity; 15 μM ATP, 1 h room temperature; method text calls the value IC50
Method in brief: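 FRET Z-lyte read-out (coumarin/fluorescein ratio, % phosphorylation) after 1 h development; IC50 from non-linear curve fit. Reaction: 0.25 μg/mL recombinant human DYRK1A, Ser/Thr 18 peptide 4 μM, ATP 15 μM, compound in 11-point 1:3 series from 10 μM, 1 h, room temperature, duplicate wells.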

EC50 [nM] | SMILES
494 | CN1CCN(C(=O)c2cnn3ccc(-c4c[nH]c5ncnc(NCC6CC6)c45)cc23)CC1 [Compound 1244, (5-(4-((cyclopropylmethyl)amino)-7H-pyrrolo[2,3-d]pyrimidin-5-yl)pyrazolo[1,5-a]pyridin-3-yl)(4-methylpiperazin-1-yl)methanone]
182 | CN(C)C(=O)c1cnn2ccc(-c3c[nH]c4nc(C5CC5)ncc34)cc12 [Compound 1245, 5-(2-Cyclopropyl-7H-pyrrolo[2,3-d]pyrimidin-5-yl)-N,N-dimethylpyrazolo [1,5-a]pyridine-3-carboxamide]
79.8 | CN(C(=O)c1cnn2ccc(-c3c[nH]c4nc(C5CC5)ncc34)cc12)C1CC(F)(F)C1 [Compound 1379, 5-(2-Cyclopropyl-7H-pyrrolo[2,3-d]pyrimidin-5-yl)-N-(3,3-difluorocyclobutyl)-N-methylpyrazolo[1,5-a]pyridine-3-carboxamide]
6 | O=C(NCC1CC(F)(F)C1)c1cnn2ccc(-c3c[nH]c4nc(C5CC5)ncc34)cc12 [Compound 1422, 5-(2-Cyclopropyl-7H-pyrrolo[2,3-d]pyrimidin-5-yl)-N-((3,3-difluorocyclobutyl)methyl)pyrazolo[1,5-a]pyridine-3-carboxamide]
11.4 | CC(C)Nc1ncc2c(-c3ccn4ncc(C(=O)NCC5CC(F)(F)C5)c4c3)c[nH]c2n1 [Compound 1428, N-((3,3-Difluorocyclobutyl)methyl)-5-(2-(isopropylamino)-7H-pyrrolo[2,3-d]pyrimidin-5-yl)pyrazolo[1,5-a]pyridine-3-carboxamide]
6.7 | CO[C@H]1CC[C@H](NC(=O)c2cnn3ccc(-c4c[nH]c5nc(C6CC6)ncc45)cc23)CC1 [Compound 1465, 5-(2-Cyclopropyl-7H-pyrrolo[2,3-d]pyrimidin-5-yl)-N-(trans-4-methoxycyclohexyl)pyrazolo[1,5-a]pyridine-3-carboxamide]
3.4 | CN1CCC(NC(=O)c2cnn3ccc(-c4c[nH]c5nc(N)ncc45)cc23)CC1 [Compound 1511, 5-(2-amino-7H-pyrrolo[2,3-d]pyrimidin-5-yl)-N-(1-methylpiperidin-4-yl)pyrazolo[1,5-a]pyridine-3-carboxamide]
7.5 | O=C(NC1CCOCC1)c1cnn2ccc(-c3c[nH]c4nc(C5CC5)ncc34)cc12 [Compound 1551, 5-(2-Cyclopropyl-7H-pyrrolo[2,3-d]pyrimidin-5-yl)-N-(tetrahydro-2H-pyran-4-yl)pyrazolo[1,5-a]pyridine-3-carboxamide]
214 | CC(C)Cc1ncc2c(-c3ccn4nccc4n3)c[nH]c2n1 [Compound 1636, 2-Isobutyl-5-(pyrazolo[1,5-a]pyrimidin-5-yl)-7H-pyrrolo[2,3-d]pyrimidine]
19.1 | CC(C)(C)CNc1ncc2c(-c3ccn4nccc4n3)c[nH]c2n1 [Compound 1646, N-Neopentyl-5-(pyrazolo[1,5-a]pyrimidin-5-yl)-7H-pyrrolo[2,3-d]pyrimidin-2-amine]
5.9 | CC(F)(F)CNc1ncc2c(-c3ccn4nccc4n3)c[nH]c2n1 [Compound 1649, N-(2,2-Difluoropropyl)-5-(pyrazolo[1,5-a]pyrimidin-5-yl)-7H-pyrrolo[2,3-d]pyrimidin-2-amine]
19.8 | FC(F)(F)CNc1ncc2c(-c3ccn4nccc4n3)c[nH]c2n1 [Compound 1650, 5-(Pyrazolo[1,5-a]pyrimidin-5-yl)-N-(2,2,2-trifluoroethyl)-7H-pyrrolo[2,3-d]pyrimidin-2-amine]
13.2 | C[C@@H](Nc1ncc2c(-c3ccn4nccc4n3)c[nH]c2n1)C(F)(F)F [Compound 1651, (R)-5-(Pyrazolo[1,5-a]pyrimidin-5-yl)-N-(1,1,1-trifluoropropan-2-yl)-7H-pyrrolo[2,3-d]pyrimidin-2-amine]
103 | C[C@H](Nc1ncc2c(-c3ccn4nccc4n3)c[nH]c2n1)C(F)(F)F [Compound 1652, (S)-5-(Pyrazolo[1,5-a]pyrimidin-5-yl)-N-(1,1,1-trifluoropropan-2-yl)-7H-pyrrolo[2,3-d]pyrimidin-2-amine]
9.2 | FC1(F)CCC(Nc2ncc3c(-c4ccn5nccc5n4)c[nH]c3n2)CC1 [Compound 1663, N-(4,4-Difluorocyclohexyl)-5-(pyrazolo[1,5-a]pyrimidin-5-yl)-7H-pyrrolo [2,3-d]pyrimidin-2-amine]
19 | CN1CCC(Nc2ncc3c(-c4ccn5nccc5n4)c[nH]c3n2)CC1 [Compound 1667, N-(1-Methylpiperidin-4-yl)-5-(pyrazolo[1,5-a]pyrimidin-5-yl)-7H-pyrrolo [2,3-d]pyrimidin-2-amine]
6.1 | c1cc2nc(-c3c[nH]c4nc(NC5CCOCC5)ncc34)ccn2n1 [Compound 1669, 5-(Pyrazolo[1,5-a]pyrimidin-5-yl)-N-(tetrahydro-2H-pyran-4-yl)-7H-pyrrolo [2,3-d]pyrimidin-2-amine]
21.1 | CC(C)(F)CNc1ncc2c(-c3ccn4ncc(F)c4n3)c[nH]c2n1 [Compound 1678, N-(2-Fluoro-2-methylpropyl)-5-(3-fluoropyrazolo[1,5-a]pyrimidin-5-yl)-7H-pyrrolo[2,3-d]pyrimidin-2-amine]
92.9 | C[C@@H](Nc1ncc2c(-c3ccn4ncc(F)c4n3)c[nH]c2n1)C(F)(F)F [Compound 1679, (R)-5-(3-Fluoropyrazolo[1,5-a]pyrimidin-5-yl)-N-(1,1,1-trifluoropropan-2-yl)-7H-pyrrolo[2,3-d]pyrimidin-2-amine]
98.8 | C[C@@H](Nc1ncc2c(-c3ccn4ncc(Cl)c4n3)c[nH]c2n1)C(F)(F)F [Compound 1681, (R)-5-(3-Chloropyrazolo[1,5-a]pyrimidin-5-yl)-N-(1,1,1-trifluoropropan-2-yl)-7H-pyrrolo[2,3-d]pyrimidin-2-amine]
5.1 | CC(C)(F)CNc1ncc2c(-c3ccn4ncc(C5CC5)c4n3)c[nH]c2n1 [Compound 1695, 5-(3-Cyclopropylpyrazolo[1,5-a]pyrimidin-5-yl)-N-(2-fluoro-2-methylpropyl)-7H-pyrrolo[2,3-d]pyrimidin-2-amine]
7.3 | CN1CCC(CNc2ncc3c(-c4ccc5c(c4)OCCNC5=O)c[nH]c3n2)CC1 [Compound 1758, 8-(2-(((1-Methylpiperidin-4-yl)methyl)amino)-7H-pyrrolo[2,3-d]pyrimidin-5-yl)-3,4-dihydrobenzo[f][1,4]oxazepin-5(2H)-one]
34.8 | CN1CCN(c2cc(Nc3ncc4c(-c5ccc6c(c5)CCCO6)c[nH]c4n3)ccn2)CC1 [Compound 1768, 5-(Chroman-6-yl)-N-(2-(4-methylpiperazin-1-yl)pyridin-4-yl)-7H-pyrrolo [2,3-d]pyrimidin-2-amine]
66.9 | CN1CCC(Nc2ncc3c(-c4ccc5c(c4)OC(C)(C)CC5=O)c[nH]c3n2)CC1 [Compound 1801, 2,2-Dimethyl-7-(2-((1-methylpiperidin-4-yl)amino)-7H-pyrrolo[2,3-d]pyrimidin-5-yl)chroman-4-one]
42.7 | COc1nc(CC(C)C)nc2[nH]cc(-c3ccc4ncccc4c3)c12 [Compound 1857, 6-(2-Isobutyl-4-methoxy-7H-pyrrolo[2,3-d]pyrimidin-5-yl)quinoline]
2.9 | Nc1ncc2c(-c3ccc4ncccc4c3)c[nH]c2n1 [Compound 1862, 5-(Quinolin-6-yl)-7H-pyrrolo[2,3-d]pyrimidin-2-amine]
2.9 | CNc1ncc2c(-c3ccc4ncccc4c3)c[nH]c2n1 [Compound 1863, N-Methyl-5-(quinolin-6-yl)-7H-pyrrolo[2,3-d]pyrimidin-2-amine]
